# Laboratory results: patent publication US20250333745A1, “METHODS AND COMPOSITIONS FOR TREATMENT OF POLYCYSTIC KIDNEY DISEASE” (Regulus Therapeutics Inc., priority 2016, published 2025)
# Experiments:
# Pkd2-KO mice = experiment: Efficacy in the Pkd2-KO model of PKD; type: in vivo, mouse; details: for BUN (mean) / Cystic Index (mean) / KW/BW Ratio (mean) / Serum Creatinine (mean): 20 mg/kg s.c. on days 10, 11, 12, 19 of age, sacrificed at 28 days
# Source text: (§1) Two experimental models of PKD were used to evaluate efficacy. Pkd2-KO mice spontaneously develop polycystic kidney disease, and were used as a model of ADPKD. See Patel et al., PNAS, 2013; 110 (26): 10765-10770. Pcy mice bearing a mutation in Nphp3 spontaneously develop polycystic kidney disease, with a slower progression of disease than that observed in the Pkd2-KO mice. The Pcy model is used as a model of nephronophthisis. See Happe and Peters, Nat. Rev. Nephrol., 2014; 10:587-601.
# RG4326 was tested in the Pkd2-KO mouse model of ADPKD. This model is also referred to as the PKD2-KO model. Wild-type mice were used as control mice. An oligonucleotide complementary to a miRNA unrelated to miR-17 was used as a treatment control for specificity (RG5124).
# On each of days 10, 11 12, and 19 of age, sex-matched littermates of mice were administered a subcutaneous injection of RG4326 at a dose of 20 mg/kg (n=12), RG5124 at a dose of 20 mg/kg (n=12), tool anti-miR-17 at a dose of 20 mg/kg (n=12), or PBS (n=12). Mice were sacrificed at 28 days of age, and kidney weight, body weight, cyst index, serum creatinine level, and blood urea nitrogen (BUN) level were measured. BUN level is a marker of kidney function. A higher BUN level correlates with poorer kidney function, thus a reduction in BUN level is an indicator of reduced kidney injury and damage and improved function. Statistical significance was calculated by one-way ANOVA with Dunnett's multiple correction.
# (§2) Cyst index is a histological measurement of cystic area relative to total kidney area. For this analysis, one kidney was perfused with cold PBS and 4% (wt/vol) paraformaldehyde and then harvested. Kidneys were fixed with 4% paraformaldehyde for 2 hours and then, embedded in paraffin for sectioning. Sagittal sections of kidneys were stained with hematoxylin and eosin (H&E). All image processing steps were automated and took place in freely available and open source software: An R1 script which used functions from the EBImage Bioconductor package2 and the ImageMagick3 suite of image processing tools. Kidney H&E images in Aperio SVS format were converted to TIFF images, and the first frame was retained for image analysis. First, the total kidney section area was calculated using image segmentation. Image segmentation was similarly used to find all internal structures including kidney cyst. A filter was applied to remove all objects less than a mean radius of three pixels. The cystic index is the image area associated with cysts divided by the total kidney areas. Cystic index was separately calculated for longitudinal and transverse kidney sections for each individual animal. Combined cystic index of individual animals were compared for each treatment groups.
# [1] = Pharmacokinetic profile after single 30 mg/kg subcutaneous dose in wild-type mice; type: in vivo, mouse; details: single s.c. dose 30 mg/kg
# Experimental: A full pharmacokinetic profile for selected compounds that have passed multiple screening criteria was obtained in C57BL6 mice. In one study, mice are administered a single subcutaneous injection of anti-miR-17 compound at 30 mg/kg. In another study, mice are administered three subcutaneous injections of anti-miR-17 compound at 39 mg/kg, over a two-month period. In each study, liver and kidney samples are collected at 1 hour, 4 hours, 8 hours, 1 day, 4 days, 7 days, 14 days, 28 days, and 56 days following injections.
# Pharmacokinetic behavior was assessed by administering a single subcutaneous 30 mg/kg dose of RG4326 or tool anti-miR-17 compound to wild-type mice. At one hour, four hours, eight hours, one day, seven days, 14 days, 28 days and 56 days following the single injection, mice were sacrificed and the mean concentration of anti-miR compound in kidney and liver tissue was measured (ug/g) as described above. The area-under-curve (AUC) was calculated for kidney and liver tissue using the formula ug*h/g, where ug is the amount of oligonucleotide in the tissue, h is the timepoint of tissue collection in hours, and g is the weight of the tissue. The ratio of kidney AUC to liver AUC was determined. Kidney tissue was also processed to the miPSA, to determine target engagement for each compound in this study. PSA AUC was calculated using the formula Log2FC*h, where Log2FC is the displacement value, h is the timepoint of tissue collection in hours. Potency in the kidney at day 7 was calculated using the formula […] where Log2FC is the displacement value as determined by the miPSA, g is the weight of the kidney tissue, and ug is the amount of anti-miR in the kidney tissue at day seven.
# Pcy mice = experiment: Efficacy in the Pcy model of PKD; type: in vivo, mouse; details: for BUN (mean) / Cystic Index (mean) / KW/BW Ratio (mean): 25 mg/kg s.c. for oligonucleotides, sacrificed at 15 weeks of age
# Source text: as §1, §2
# RG4326 was tested in the Pcy mouse model. Wild-type mice were used as control group. From four weeks of age, Pcy mice were treated once per week via subcutaneous injection with RG4326 at a dose of 25 mg/kg, tool anti-miR-17 at a dose of 25 mg/kg, control oligonucleotide RG5124 at a dose of 25 mg/kg, or PBS. Each treatment group contained 15 male mice. Three treatments were administered on […] days of age, and weekly thereafter at 6, 7, 8, 9, 10, 11, 12, 13, and 14 weeks of age. Also tested was tolvaptan, a vasopressin V2-receptor antagonist (VRA) that is prescribed to some patients with polycystic kidney disease. Mice were sacrificed at 15 weeks of age. Body weight was recorded. One kidney was extracted and weighed and the other processed for histological analysis to calculate cyst index as described for the study in the Pkhd1/cre; Pkd2^F/F. Blood urea nitrogen (BUN) level and serum creatinine level were measured. Statistical significance was calculated by one-way ANOVA with Dunnett's multiple correction.
# miR-17 targets = experiment: miR-17 PD Signature Score in IMCD3 cells (18 genes targeted by miR-17); type: cell-based, mouse; details: 24-hour transfection, relative to mock-transfection
# Experimental: To test the ability of RG4326 to inhibit miR-17 regulation of endogenous targets, miR-17 target gene de-repression was assessed in vitro in several kidney cell types from normal and PKD mouse kidneys. Mouse kidney collecting duct cells (IMCD3) were treated with 0.3 nM, 1.2 nM, 4.7 nM, 18.8 nM, 75 nM, and 300 nM of RG4326 or a control oligonucleotide, RG5124. Additional control groups included untreated cells and mock-transfected cells (cell treated with transfection reagent only). After a 24-hour transfection period, cells were collected and RNA was extracted. The mRNA levels of 18 genes targeted by miR-17 were measured, and averaged to provide a pharmacodynamic signature score (PD Signature Score), represented as Log2 fold-change (Log2FC) relative to mock-transfection.
# [2] = 20 mg/kg, not statistically significant
Compound,"effect on KW/BW ratio, BUN and cyst index (in words) (Pkd2-KO mice; 20 mg/kg)",KAUC/LAUC Ratio [1],Kidney AUC (one hour to 56 days) [1] [µg·h/g],Liver AUC (one hour to 56 days) [1] [µg·h/g],"efficacy on KW/BW ratio, BUN or cyst index (in words) (Pcy mice)","miR-17 PD Signature Score, Mean Log2FC (miR-17 targets; 0.3 nM) [Log2FC]","miR-17 PD Signature Score, Mean Log2FC (miR-17 targets; 1.2 nM) [Log2FC]","miR-17 PD Signature Score, Mean Log2FC (miR-17 targets; 4.7 nM) [Log2FC]","miR-17 PD Signature Score, Mean Log2FC (miR-17 targets; 18.8 nM) [Log2FC]","miR-17 PD Signature Score, Mean Log2FC (miR-17 targets; 75 nM) [Log2FC]","miR-17 PD Signature Score, Mean Log2FC (miR-17 targets; 300 nM) [Log2FC]",BUN (mean) (Pkd2-KO mice) [mg/dL],Cystic Index (mean) (Pkd2-KO mice),KW/BW Ratio (mean) (Pkd2-KO mice) [mg/g],Serum Creatinine (mean) (Pkd2-KO mice) [mg/dL],BUN (mean) (Pcy mice),Cystic Index (mean) (Pcy mice),KW/BW Ratio (mean) (Pcy mice),other results
"5′-CTGCACTGTAAGCACTTTG-3′ (all phosphorothioate, sugars by position and methylation of C not given here; DNA, 2'-MOE and S-cEt sugars) [Tool anti-miR-17, reference compound]",no statistically significant changes were observed,1.0,20711,20275,did not result in statistically significant reductions,,,,,,,,,,,,,,
"COC1C(OP(=O)(S)OC[C@H]2O[C@@H](n3cnc4c(N)ncnc43)C(F)C2OP(=O)(S)OC[C@H]2O[C@@H](n3ccc(N)nc3=O)C(F)C2OP(=O)(S)OC[C@H]2O[C@@H](n3ccc(=O)[nH]c3=O)C(F)C2OP(=O)(S)OC[C@H]2O[C@@H](n3ccc(=O)[nH]c3=O)C(OC)C2OP(=O)(S)OC[C@]23O[C@@H](n4ccc(=O)[nH]c4=O)C(O[C@H]2C)C3OP(=O)(S)OC[C@]23O[C@@H](n4cnc5c(=O)[nH]c(N)nc54)C(O[C@H]2C)C3O)[C@@H](COP(=O)(S)OC2C3O[C@@H](C)[C@]2(COP(=O)(S)OC2C4O[C@@H](C)[C@]2(CO)O[C@H]4n2cnc4c(N)ncnc42)O[C@H]3n2cnc3c(=O)[nH]c(N)nc32)O[C@H]1n1ccc(N)nc1=O (stereo in doubt) [RG4326, ASGSCMAFCFUFUMUSGS]",,4.4,5347,1206,,−0.075,−0.067,0.027,0.272,0.369,0.373,72.92,50.3,40.98,0.26,19.7,0.16,18.1,"Mean serum creatinine levels lower than in PBS mice (Pkd2-KO mice; [2]): 18%; mean reduction in cyst index compared to PBS (Pkd2-KO mice; [2]): 12%; mean KW/BW ratio lower than in PBS mice (Pkd2-KO mice; 20 mg/kg, p=0.0099): 29%; mean KW/BW ratio lower relative to PBS-treated mice (Pcy mice; 25 mg/kg, p=0.0055): 19%; BUN reduced relative to PBS-treated mice (Pcy mice; 25 mg/kg, p=0.0070): 16%; cyst index reduced compared to PBS (Pcy mice; 25 mg/kg, p=0.016): 34%"
"ASCSAMAFUFGFCMASCS [RG5124, reference compound]","did not reduce kidney weight to body weight ratio, cyst index, or BUN",,,,did not result in statistically significant reductions,−0.083,−0.103,−0.097,−0.108,−0.124,−0.065,86.67,56.67,55.35,0.31,21.2,0.23,21.4,
